Assay results: patent publication US11479579B2, “Therapeutic compounds and methods” (Regents of the University of Minnesota, priority 2018, dated 2022)

Tests used:
[1] = Stability in plasma; assay type: in vitro ADME; conditions: for Stability in plasma compared with p-GSH: summary in words of Table 1
Experimental: (§1) Compounds 4 and 9 were tested in for stability in the gastrointestinal tract and plasma.

[2] = Conversion of prodrugs into p-GSH in liver homogenate; assay type: in vitro ADME; conditions: liver homogenate with proteinase inhibitors; FIGS. 1 and 2
Experimental: The conversion of the p-GSH prodrugs, compounds 4 & 9 into p-GSH were studied in liver homogenate. Liver and brain homogenate were selected because they not only are considered as metabolic organs for p-GSH but also the target organs of p-GSH. The homogenate was prepared from fresh liver tissue and proteinase inhibitors were added in order to prevent degradation of metabolic enzymes.

[3] = Stability in GI tract (gastric and intestinal phase); assay type: in vitro ADME; conditions: for Stability in the GI tract compared with p-GSH: summary in words of Table 1
Experimental: as §1

[4] = system: amyloid-β induced neurotoxicity; conditions: certain earlier data; cited from earlier work
[5] = system: acetaminophen (ACP) toxicity; conditions: cited from earlier work
[6] = molecular target: T1, glyoxalase-I (Homo sapiens, UniProt Q04760); conditions: previous studies (More, Vince 2012); cited from earlier work
T1 sequence (Q04760 2-184 limits assumed): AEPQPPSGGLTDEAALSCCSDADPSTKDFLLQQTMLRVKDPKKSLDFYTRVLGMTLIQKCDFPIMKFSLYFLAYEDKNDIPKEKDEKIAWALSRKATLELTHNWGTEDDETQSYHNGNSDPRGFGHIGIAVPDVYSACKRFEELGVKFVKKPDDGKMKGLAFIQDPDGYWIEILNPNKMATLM

[7] = system: transgenic Alzheimer's mice; conditions: certain earlier data; cited from earlier work

| Stability in plasma [1] [h] | Stability in plasma compared with p-GSH [1] | Stability in GI tract, Gastric Phase [3] [h] | Stability in GI tract, Intestinal Phase [3] | Stability in the GI tract compared with p-GSH [3] | Compound | Conversion into parent compound p-GSH [2] | Effect on amyloid-β induced neurotoxicity [4] | Rescue agent against acetaminophen (ACP) toxicity [5] | Substrate property for glyoxalase-I [6] | Effect on cognitive decline [7] |
| --- | --- | --- | --- | --- | --- | --- | --- | --- | --- | --- |
| 5.8 | more stable in plasma | >24 | 5.1 h | more stable than p-GSH in the GI tract | CC(=O)SC[C@H](NC(=O)NC[C@H](N)C(=O)O)C(=O)NCC(=O)O [Compound 4] | can be converted into parent compound p-GSH |  |  |  |  |
| 80 | more stable in plasma | >24 | 7.7 h | more stable than p-GSH in the GI tract | CCOC(=O)SC[C@H](NC(=O)NC[C@H](N)C(=O)O)C(=O)NCC(=O)O [Compound 9] | can be converted into parent compound p-GSH |  |  |  |  |
| 0.0433 |  | >24 | 1.3 h < 4 h |  | N[C@@H](CNC(=O)N[C@@H](CS)C(=O)NCC(=O)O)C(=O)O [p-GSH] |  | reduced the amyloid-β induced neurotoxicity | useful as rescue agent | stable substrate | prevented cognitive decline |
